# Measurements taken from patent US20080095711A1, “Modulators of Pulmonary Hypertension” (priority 2006, published 2008).
# Entries after “also recorded” stand apart in the source; their conditions may differ.
# Columns and labels:
# [1] = tested on: rabbit intralobar pulmonary arteries; assay: Inhibition of agonist-induced vasoconstriction in rabbit intralobar pulmonary artery rings (ring tension); settings: compound at 10 μM; for inhibition of 5,6-EET-induced vasoconstriction (concentration-response curve shifted to the right): 5,6-EET 1×10^−8-1×10^−5 M, rabbit PA rings
# Protocol: To obtain the pulmonary arteries used in the study, adult New Zealand white rabbits (2.4-3.0 kg) were anesthetized with pentobarbital sodium (15 mg/kg iv) for 10 minutes after intramuscular administration of ketamine (8 mg/kg) and xylazine (2 mg/kg). A tracheostomy was performed and a tracheal cannula was inserted. The animals were ventilated via a fixed volume ventilator (Harvard) with room air (tidal volume: 8-10 ml/kg at 15 cycles/min). A catheter was inserted into a carotid artery for administration of heparin (1,000 units, iv) 10 minutes before exsanguination of the animal. After exsanguination, the lungs were removed for isolation of the pulmonary vessels. Intralobar, second order pulmonary arteries (PA) were obtained as described previously (Stephenson A. H., et al., American Journal of Physiology 284: H2153-H2161, 2003). Briefly, intralobar PA (1-2 mm OD) were dissected free of extravascular tissue, cut into rings 3-4 mm in length and suspended in water-jacketed tissue chambers containing 10 ml of a physiological salt solution (PSS) composed of (in mM): NaCl (118.3), KCl (4.7), CaCl2 (2.5), MgS04 (1.2), KH2P04 (1.2), NaHC03 (25) Na-EDTA (0.026), and glucose (11.1). The PSS was gassed with 95% O2-5% CO2 (pH: 7.4) and maintained at 37° C. Each ring was mounted between two stainless steel support wires. Ring tension was measured from one of the support wires attached to an isometric force transducer (FT03, Grass) and recorded continuously on a polygraph (Grass). Each ring was placed under a basal (passive) tension (0.75 to 1.5 g) determined to result in a maximal contractile response to KCl (60 mM). In some studies, basal tension was increased with 25 mM KCl to achieve a submaximal increase in active tension. At basal tension, concentrations of 5,6-EET (1×10^−8-1×10^−5 M, delivered in 1 μl of absolute ethanol) were added individually or cumulatively to the rings in 10 ml PSS. Total ethanol concentration in the tissue chambers never exceeded 0.1%. In these experiments, 5,6-EET was added in the presence or absence of the selective 5,6-EET inhibitors 13-HTEC (10 μM) and 14-HTYC (10 μM). […] PA rings were also exposed to various concentrations of PGF2α, (Sigma Chemical Company, St. Louis, Mo.), 14,15-EET (Cayman Chemical, Ann Arbor, Mich.), 5-hydroxytryptamine (5-HT) (Sigma Chemical Company, St. Louis, Mo.), and norepinephrine (NE) (Sigma Chemical Company, St. Louis, Mo.).
# [2] = tested on: isolated perfused rabbit lungs; assay: Hypoxia-induced pulmonary vasoconstriction in isolated perfused rabbit lungs (with L-NAME); settings: compound at 10 μM in perfusate, L-NAME 100 μM
# Protocol: Adult New Zealand white rabbits were prepared as described in Example 2. After exsanguination was completed, a midsternal thoracotomy was performed, and the heart and lungs were removed en bloc. Fluid-filled catheters were placed into the PA and the left atrium for lung perfusion and pressure measurements. The isolated lungs were ventilated at 10 ml/kg with 26-30 breaths/min of 15% O2-6% CO2-79% N2 to achieve a perfusate pH of 7.33±0.01, PCO2 of 38.1±2.8 mmHg, and PO2 of 107.3±5.9 mmHg. The lungs were perfused in a humidified chamber (34-37° C.) in a recirculating manner with 150 ml of PSS containing (in mM) 118.3 NaCl, 4.7 KCl, 2.5 CaCl2, 1.2 MgSO4, 1.2 KH2PO4, 25.0 NaHCO3, 0.026 Na-EDTA, and 11.1 glucose (pH 7.4) to which hetastarch was added for maintenance of oncotic pressure. […] Pulmonary arterial (Ppa, inflow), pulmonary venous (Pla, outflow), and airway pressures were recorded continuously. Microvascular pressure (Pmv) was measured by the double occlusion method (Dawson C. A., et al., Journal of Applied Physiology 64: 274-284, 1988; Wurtz M. M., et al., J Appl Physiol 73: 2135-2141, 1992). […] Total PVR was calculated as (Ppa Pla)/perfusate flow rate. Arterial PVR was calculated as (Ppa Pmv)/perfusate flow rate, and venous PVR was calculated as (Pmv Pla)/perfusate flow rate (Stephenson A. H., et al., Am J Physiol 275: H100-H109, 1998).
# mice = settings: Pokreisz et al. 2006; cited from earlier work
# [3] = tested on: rabbit intralobar pulmonary arteries; assay: Promotion of 5,6-EET induced vasoconstriction in rabbit intralobar pulmonary artery rings; settings: compound at 1 μM; rabbit PA rings
# Protocol: To obtain the pulmonary arteries used in the study, adult New Zealand white rabbits (2.4-3.0 kg) were anesthetized with pentobarbital sodium (15 mg/kg iv) for 10 minutes after intramuscular administration of ketamine (8 mg/kg) and xylazine (2 mg/kg). A tracheostomy was performed and a tracheal cannula was inserted. The animals were ventilated via a fixed volume ventilator (Harvard) with room air (tidal volume: 8-10 ml/kg at 15 cycles/min). A catheter was inserted into a carotid artery for administration of heparin (1,000 units, iv) 10 minutes before exsanguination of the animal. After exsanguination, the lungs were removed for isolation of the pulmonary vessels. Intralobar, second order pulmonary arteries (PA) were obtained as described previously (Stephenson A. H., et al., American Journal of Physiology 284: H2153-H2161, 2003). […] Ring tension was measured from one of the support wires attached to an isometric force transducer (FT03, Grass) and recorded continuously on a polygraph (Grass). Each ring was placed under a basal (passive) tension (0.75 to 1.5 g) determined to result in a maximal contractile response to KCl (60 mM). […]
compound,measurement,setting,value
"CCCCCCCOCCCCCCC/C=C\CCCC(=O)O [Compound 13-HTEC, 13-heptyloxytridec-5(Z)-enoic acid]",inhibition of 5-hydroxytryptamine (5-HT)-mediated vasoconstriction of PA,[1],is not inhibited; also recorded: does not inhibit
same,"inhibition of 14,15-EET-mediated vasoconstriction of PA",[1],is not inhibited; also recorded: does not inhibit
same,inhibition of PGF2α-mediated vasoconstriction of PA,[1],is not inhibited; also recorded: does not inhibit
same,inhibition of norepinephrine (NE)-mediated vasoconstriction of PA,[1],Minimal effects; also recorded: may have partially inhibited
same,"inhibition of 5,6-EET-induced vasoconstriction (concentration-response curve shifted to the right)",[1],specifically inhibit; also recorded: significantly inhibited
same,effect on pulmonary arterial inflow (Ppa) pressure / hypoxia-induced vasoconstriction,[2],hypoxia-induced vasoconstriction is reduced; also recorded: significantly decreased
"C#CCOc1ccccc1CCCCCC(=O)NS(C)(=O)=O [MSPPOH, N-methyl sulfonyl-6-(2-propargyloxyphenyl)hexanamide]",effect on acute hypoxia-induced pulmonary hypertension,mice,significantly reduced
same,effect on chronic hypoxia-induced pulmonary vascular remodeling,mice,significantly reduced
"CCCCCCOCCCCCCCCC#CCCCC(=O)O [Compound 14-HTYC, 14-(hexyloxy)tetradec-5-ynoic acid]","inhibition of 5,6-EET-induced vasoconstriction (concentration-response curve shifted to the right)",[1],specifically inhibit
"CCCCCC1OC1CCCCCCC/C=C\CCCC(=O)O (stereo not shown) [14,15-EEZE, 14,15-epoxyeicosa-5(Z)-enoic acid]","effect on vasoconstrictor activity of exogenously administered 5,6-EET (concentration-response curve shifted to the left)",[3],significantly promoted or agonized
